Tests used:
Assay in all cases: Test I pre-/postemergence, mixtures of Cpd. No. 20 with saflufenacil or pyroxasulfone
Type in all cases: in vivo
[1] = system: common ragweed (AMBEL; Ambrosia artemisiifolia); details: for Plant response rating (0 to 100 scale): AMBEL
Description: (§1) This test evaluated the effect of mixtures of Cpd. No. 20 with saflufenacil or pyroxasulfone on several plant species. Seeds of plant species selected from corn (ZEAMD; Zea mays, cv. ‘Pioneer 1184’), soybean (GLXMA; Glycine max, cv. Pioneer 35T58), giant foxtail (SETFA; Setaria faberi), palmer amaranth (AMAPA; Amaranthus palmeri), common waterhemp (AMATU; Amaranthus rudis), mare's tail (ERICA; Conyza canadensis), and common ragweed (AMBEL; Ambrosia artemisiifolia) were planted in pots containing Tama Silt Loam soil and treated preemergence with a directed soil spray using test chemicals formulated in a non-phytotoxic solvent mixture which included a surfactant.
(§2) At the same time, plants selected from these crop and weed species were planted in pots containing Redi-Earth® planting medium (Scotts Company, 14111 Scottslawn Road, Marysville, Ohio 43041) comprising spaghnum peat moss, vermiculite, wetting agent and starter nutrients and treated postemergence with test chemicals formulated in the same manner. Plants ranged in height from 2 to 10 cm and were in the one- to two-leaf stage for the postemergence treatment. Treated plants and untreated controls were maintained in a greenhouse for approximately 14-21 d, after which time all treated plants were compared to untreated controls and visually evaluated for injury. Plant response ratings, summarized in Tables 11 to 14, are based on a 0 to 100 scale where 0 is no effect and 100 is complete control. A dash (-) response means no test result. Test results are presented as a mean of 4 reps.

[2] = system: mare's tail (ERICA; Conyza canadensis); details: for Plant response rating (0 to 100 scale): Preemergence, ERICA
Description: as §1, §2

[3] = system: soybean (GLXMA; Glycine max, cv. Pioneer 35T58); details: for Plant response rating (0 to 100 scale): GLXMA
Description: as §1, §2

[4] = system: palmer amaranth (AMAPA; Amaranthus palmeri); details: for Plant response rating (0 to 100 scale): AMAPA
Description: as §1, §2

[5] = system: corn (ZEAMD; Zea mays, cv. ‘Pioneer 1184’); details: for Plant response rating (0 to 100 scale): ZEAMD
Description: as §1, §2

[6] = system: giant foxtail (SETFA; Setaria faberi); details: for Plant response rating (0 to 100 scale): SETFA
Description: as §1, §2

[7] = system: common waterhemp (AMATU; Amaranthus rudis); details: for Plant response rating (0 to 100 scale): AMATU
Description: as §1, §2

[8] = Preemergence, Cpd. No. 20 8 g a.i./ha alone
[9] = preemergence, Cpd. No. 20 16 g a.i./ha alone
[10] = preemergence, Cpd. No. 20 31 g a.i./ha alone
[11] = preemergence, Cpd. No. 20 62 g a.i./ha alone

Cc1ccc2ccc(C)c(-c3c(O)c(Cl)nn(C)c3=O)c2c1 [Cpd. No. 20, 6-chloro-4-(2,7-dimethyl-1-naphthalenyl)-5-hydroxy-2-methyl-3(2H)-pyridazinone]
Plant response rating (0 to 100 scale) [1, 8]: 0 | AMBEL plant response rating, 0 to 100 scale ([1]; postemergence, 8 g a.i./ha): 86 | AMBEL plant response rating, 0 to 100 scale ([1]; postemergence, 16 g a.i./ha): 90 | AMBEL plant response rating, 0 to 100 scale ([1]; postemergence, 31 g a.i./ha): 100 | AMBEL plant response rating, 0 to 100 scale ([1]; postemergence, 62 g a.i./ha): 94 | AMBEL plant response rating, 0 to 100 scale ([1]; preemergence, 8 g a.i./ha): 0 | AMBEL plant response rating, 0 to 100 scale ([1]; preemergence, 16 g a.i./ha): 10 | AMBEL plant response rating, 0 to 100 scale ([1]; preemergence, 31 g a.i./ha): 69 | AMBEL plant response rating, 0 to 100 scale ([1]; preemergence, 62 g a.i./ha): 98 | Plant response rating (0 to 100 scale) [1, 9]: 10 | Plant response rating (0 to 100 scale) [1, 10]: 69 | Plant response rating (0 to 100 scale) [1, 11]: 98 | Plant response rating (0 to 100 scale) ([2]; Cpd. No. 20 8 g a.i./ha alone): 93 | Plant response rating (0 to 100 scale) ([2]; Cpd. No. 20 16 g a.i./ha alone): 100 | Plant response rating (0 to 100 scale) ([2]; Cpd. No. 20 31 g a.i./ha alone): 100 | Plant response rating (0 to 100 scale) ([2]; Cpd. No. 20 62 g a.i./ha alone): 100 | ERICA plant response rating, 0 to 100 scale ([2]; postemergence, 8 g a.i./ha): 85 | ERICA plant response rating, 0 to 100 scale ([2]; postemergence, 16 g a.i./ha): 86 | ERICA plant response rating, 0 to 100 scale ([2]; postemergence, 31 g a.i./ha): 90 | ERICA plant response rating, 0 to 100 scale ([2]; postemergence, 62 g a.i./ha): 90 | ERICA plant response rating, 0 to 100 scale ([2]; preemergence, 8 g a.i./ha): 93 | ERICA plant response rating, 0 to 100 scale ([2]; preemergence, 16 g a.i./ha): 100 | ERICA plant response rating, 0 to 100 scale ([2]; preemergence, 31 g a.i./ha): 100 | ERICA plant response rating, 0 to 100 scale ([2]; preemergence, 62 g a.i./ha): 100 | Plant response rating (0 to 100 scale) [3, 8]: 0 | GLXMA plant response rating, 0 to 100 scale ([3]; postemergence, 8 g a.i./ha): 0 | GLXMA plant response rating, 0 to 100 scale ([3]; postemergence, 16 g a.i./ha): 0 | GLXMA plant response rating, 0 to 100 scale ([3]; postemergence, 31 g a.i./ha): 15 | GLXMA plant response rating, 0 to 100 scale ([3]; postemergence, 62 g a.i./ha): 16 | GLXMA plant response rating, 0 to 100 scale ([3]; preemergence, 8 g a.i./ha): 0 | GLXMA plant response rating, 0 to 100 scale ([3]; preemergence, 16 g a.i./ha): 0 | GLXMA plant response rating, 0 to 100 scale ([3]; preemergence, 31 g a.i./ha): 0 | GLXMA plant response rating, 0 to 100 scale ([3]; preemergence, 62 g a.i./ha): 0 | Plant response rating (0 to 100 scale) [3, 9]: 0 | Plant response rating (0 to 100 scale) [3, 10]: 0 | Plant response rating (0 to 100 scale) [3, 11]: 0 | Plant response rating (0 to 100 scale) [4, 8]: 23 | AMAPA plant response rating, 0 to 100 scale ([4]; postemergence, 8 g a.i./ha): 38 | AMAPA plant response rating, 0 to 100 scale ([4]; postemergence, 16 g a.i./ha): 40 | AMAPA plant response rating, 0 to 100 scale ([4]; postemergence, 31 g a.i./ha): 50 | AMAPA plant response rating, 0 to 100 scale ([4]; postemergence, 62 g a.i./ha): 65 | AMAPA plant response rating, 0 to 100 scale ([4]; preemergence, 8 g a.i./ha): 23 | AMAPA plant response rating, 0 to 100 scale ([4]; preemergence, 16 g a.i./ha): 44 | AMAPA plant response rating, 0 to 100 scale ([4]; preemergence, 31 g a.i./ha): 23 | AMAPA plant response rating, 0 to 100 scale ([4]; preemergence, 62 g a.i./ha): 61 | Plant response rating (0 to 100 scale) [4, 9]: 44 | Plant response rating (0 to 100 scale) [4, 10]: 23 | Plant response rating (0 to 100 scale) [4, 11]: 61 | Plant response rating (0 to 100 scale) [5, 8]: 0 | ZEAMD plant response rating, 0 to 100 scale ([5]; postemergence, 8 g a.i./ha): 0 | ZEAMD plant response rating, 0 to 100 scale ([5]; postemergence, 16 g a.i./ha): 0 | ZEAMD plant response rating, 0 to 100 scale ([5]; postemergence, 31 g a.i./ha): 0 | ZEAMD plant response rating, 0 to 100 scale ([5]; postemergence, 62 g a.i./ha): 0 | ZEAMD plant response rating, 0 to 100 scale ([5]; preemergence, 8 g a.i./ha): 0 | ZEAMD plant response rating, 0 to 100 scale ([5]; preemergence, 16 g a.i./ha): 0 | ZEAMD plant response rating, 0 to 100 scale ([5]; preemergence, 31 g a.i./ha): 0 | ZEAMD plant response rating, 0 to 100 scale ([5]; preemergence, 62 g a.i./ha): 0 | Plant response rating (0 to 100 scale) [5, 9]: 0 | Plant response rating (0 to 100 scale) [5, 10]: 0 | Plant response rating (0 to 100 scale) [5, 11]: 0 | Plant response rating (0 to 100 scale) [6, 8]: 25 | SETFA plant response rating, 0 to 100 scale ([6]; postemergence, 8 g a.i./ha): 55 | SETFA plant response rating, 0 to 100 scale ([6]; postemergence, 16 g a.i./ha): 80 | SETFA plant response rating, 0 to 100 scale ([6]; postemergence, 31 g a.i./ha): 76 | SETFA plant response rating, 0 to 100 scale ([6]; postemergence, 62 g a.i./ha): 78 | SETFA plant response rating, 0 to 100 scale ([6]; preemergence, 8 g a.i./ha): 25 | SETFA plant response rating, 0 to 100 scale ([6]; preemergence, 16 g a.i./ha): 39 | SETFA plant response rating, 0 to 100 scale ([6]; preemergence, 31 g a.i./ha): 84 | SETFA plant response rating, 0 to 100 scale ([6]; preemergence, 62 g a.i./ha): 99 | Plant response rating (0 to 100 scale) [6, 9]: 39 | Plant response rating (0 to 100 scale) [6, 10]: 84 | Plant response rating (0 to 100 scale) [6, 11]: 99 | Plant response rating (0 to 100 scale) [7, 8]: 0 | AMATU plant response rating, 0 to 100 scale ([7]; postemergence, 8 g a.i./ha): 50 | AMATU plant response rating, 0 to 100 scale ([7]; postemergence, 16 g a.i./ha): 59 | AMATU plant response rating, 0 to 100 scale ([7]; postemergence, 31 g a.i./ha): 81 | AMATU plant response rating, 0 to 100 scale ([7]; postemergence, 62 g a.i./ha): 83 | AMATU plant response rating, 0 to 100 scale ([7]; preemergence, 8 g a.i./ha): 0 | AMATU plant response rating, 0 to 100 scale ([7]; preemergence, 16 g a.i./ha): 0 | AMATU plant response rating, 0 to 100 scale ([7]; preemergence, 31 g a.i./ha): 0 | AMATU plant response rating, 0 to 100 scale ([7]; preemergence, 62 g a.i./ha): 80 | Plant response rating (0 to 100 scale) [7, 9]: 0 | Plant response rating (0 to 100 scale) [7, 10]: 0 | Plant response rating (0 to 100 scale) [7, 11]: 80
